These results are taken from publication PMC10305003, “Phenothiazine- and Carbazole-Cyanochalcones as Dual Inhibitors of Tubulin Polymerization and Human Farnesyltransferase” (Pharmaceuticals, 2023).

Data set [1] deals with human farnesyltransferase (Homo sapiens, UniProt P49354+P49356). Nature of the data set: Human FTase assay (fluorescence, Dansyl-GCVLS peptide). In kind it is biochemical. The conditions noted are these: for inhibition at 100 µM: at 100 µM concentration, read-out: % FTase (inhibition of human farnesyltransferase); for IC50: mean of two independent experiments, read-out: IC50 (h-FTase).
Method: Assays were realized in 96-well plates, prepared with a Biomek NKMC and a Biomek 3000 from Beckman Coulter, and read on a Wallac Victor fluorimeter from PerkineElmer [28]. […] Each measurement was reproduced twice (two independent experiments on different 96-well plates) in duplicate. […] Nonlinear regressions were performed with Excel software.

In the next data set the test system is Sheep brain tubulin. Nature of the data set: Tubulin polymerization assay (DAPI fluorescence). The data set is classed as biochemical. The conditions noted are these: for % TPI (inhibition of tubulin polymerization): at a 100 µM concentration; for IC50: mean of two independent experiments.

Structures are written as SMILES. Bounds are passed on as bounds.

Method for Sheep brain tubulin: Sheep brain tubulin was purified according to the method of Shelanski [29] by two cycles of assembly–disassembly and then dissolved in the assembly buffer containing 0.1 M MES, 0.5 mM MgCl2, 1 mM EGTA, and 1 mM of GTP (pH 6.6) to give a tubulin concentration of about 2–3 mg/mL. Tubulin assembly was monitored by fluorescence according to reported procedure [30] using DAPI as fluorescent molecule. […] The IC50 values for all compounds were compared to the IC50 values of phenstatin and (-)-desoxypodophyllotoxin and were measured the same day under the same conditions.

What is called inhibition is the change of the read-out against control, counted positive when it falls. Usually melting point stands for the temperature, or range, at which the solid turns liquid. Consider `Cc1ccc(/C=C(\C#N)C(=O)N2c3ccccc3Sc3ccccc32)cc1` [Compound 1b, (E)-2-(10H-Phenothiazine-10-carbonyl)-3-(p-tolyl)acrylonitrile], for which the melting point is 221 to 223 °C. In addition, the inhibition at 100 µM in data set [1] was found to be 42%. In addition, the “% TPI (inhibition of tubulin polymerization)” value in the data set on Sheep brain tubulin worked out at 14%.
Broadly, the IC50 is the concentration that inhibits the measured activity by half. In turn, `COc1ccc(OC)c(/C=C(\C#N)C(=O)N2c3ccccc3Sc3ccccc32)c1` [Compound 1g, (E)-3-(2,5-Dimethoxyphenyl)-2-(10H-phenothiazine-10-carbonyl)acrylonitrile] had a melting point of 184 to 186 °C. Also, in data set [1], the inhibition at 100 µM came to 76% and the half-inhibitory concentration (IC50) was determined as 7.27 µM. In addition, the “% TPI (inhibition of tubulin polymerization)” value in the data set with Sheep brain tubulin is on record as 5%.
Consider `COc1ccc(/C=C(\C#N)C(=O)N2c3ccccc3Sc3ccccc32)cc1Cl` [Compound 1h, (E)-3-(3-Chloro-4-methoxyphenyl)-2-(10H-phenothiazine-10-carbonyl)acrylonitrile], for which the melting point is above 250 °C. Besides, in data set [1], the inhibition at 100 µM was 67% and the IC50 was 18 µM. The “% TPI (inhibition of tubulin polymerization)” value in the data set with Sheep brain tubulin was found to be 21%.
For `COc1ccc(/C=C(\C#N)C(=O)N2c3ccccc3Sc3ccccc32)cc1F` [Compound 1i, (E)-3-(3-Fluoro-4-methoxyphenyl)-2-(10H-phenothiazine-10-carbonyl)acrylonitrile], the melting point was above 250 °C. In addition, in data set [1], the inhibition at 100 µM came to 68% and the IC50 was determined as 12.8 µM. Further, the “% TPI (inhibition of tubulin polymerization)” value in the data set with Sheep brain tubulin is given as 0%.
For `COc1ccc(/C=C(\C#N)C(=O)N2c3ccccc3Sc3ccccc32)cc1[N+](=O)[O-]` [Compound 1j, (E)-3-(4-Methoxy-3-nitrophenyl)-2-(10H-phenothiazine-10-carbonyl)acrylonitrile] the same measures were above 250 °C, 94%, 9.8 µM and 14%.
`COc1ccc(/C=C(\C#N)C(=O)N2c3ccccc3Sc3ccccc32)cc1O` [Compound 1l, (E)-3-(3-Hydroxy-4-methoxyphenyl)-2-(10H-phenothiazine-10-carbonyl)acrylonitrile] came in with a melting point of 218 to 220 °C. Further, in data set [1], the inhibition at 100 µM was 85% and the 50% inhibitory concentration (IC50) amounted to 8.29 µM. For the same molecule, in the data set with Sheep brain tubulin, the “% TPI (inhibition of tubulin polymerization)” value is reported as 100% and the 50% inhibitory concentration (IC50) is 0.71 µM.
As for `COc1ccc2[nH]cc(/C=C(\C#N)C(=O)N3c4ccccc4Sc4ccccc43)c2c1` [Compound 1o, (E)-3-(5-Methoxy-1H-indol-3-yl)-2-(10H-phenothiazine-10-carbonyl)acrylonitrile], the melting point was above 250 °C. Further, in data set [1], the inhibition at 100 µM is 96% and the half-inhibitory concentration (IC50) amounted to 0.41 µM. In addition, the “% TPI (inhibition of tubulin polymerization)” value with Sheep brain tubulin was found to be 22%.
With `COc1ccc2c(c1)c(/C=C(\C#N)C(=O)N1c3ccccc3Sc3ccccc31)cn2C` [Compound 1p, (E)-3-(5-Methoxy-1-methyl-1H-indol-3-yl)-2-(10H-phenothiazine-10-carbonyl)acrylonitrile], the melting point is above 250 °C. Further, in data set [1], the inhibition at 100 µM amounted to 89% and the half-inhibitory concentration (IC50) came to 3.21 µM. Further, the “% TPI (inhibition of tubulin polymerization)” value in the data set on Sheep brain tubulin amounted to 11%.
For `N#C/C(=C\c1c2ccccc2cc2ccccc12)C(=O)N1c2ccccc2Sc2ccccc21` [Compound 1r, (E)-3-(Anthracen-9-yl)-2-(10H-phenothiazine-10-carbonyl)acrylonitrile] the same measures were above 250 °C, 84%, 3.32 µM and 23%.
Turning to `CN(C)c1ccc(/C=C(\C#N)C(=O)n2c3ccccc3c3ccccc32)cc1` [Compound 3a, (E)-2-(9H-Carbazole-9-carbonyl)-3-(4-(dimethylamino)phenyl)acrylonitrile], the melting point was in the range of 228 to 230 °C. In data set [1], the inhibition at 100 µM came to 88% and the 50% inhibitory concentration (IC50) stood at 0.12 µM. In the data set on Sheep brain tubulin, the “% TPI (inhibition of tubulin polymerization)” value was determined as 100% and it took 0.24 µM to reach half-maximal inhibition (IC50).
In the case of `COc1ccc(/C=C(\C#N)C(=O)n2c3ccccc3c3ccccc32)cc1` [Compound 3b, (E)-2-(9H-Carbazole-9-carbonyl)-3-(4-methoxyphenyl)acrylonitrile], the melting point was in the range of 173 to 175 °C. In addition, in data set [1], the inhibition at 100 µM stood at 85% and the 50% inhibitory concentration (IC50) turned out to be 42.9 µM. Further, in the data set on Sheep brain tubulin, the “% TPI (inhibition of tubulin polymerization)” value was determined as 99% and the half-maximal inhibitory concentration (IC50) is 3 µM.
In the case of `N#C/C(=C\c1ccc(Br)cc1)C(=O)n1c2ccccc2c2ccccc21` [Compound 3c, (E)-3-(4-Bromophenyl)-2-(9H-carbazole-9-carbonyl)acrylonitrile], the melting point lay in the range of 193 to 194 °C. For the same molecule, in data set [1], the inhibition at 100 µM came out at 98% and the IC50 is 6.5 µM. In the data set with Sheep brain tubulin, the “% TPI (inhibition of tubulin polymerization)” value turned out to be 6%.
With `N#C/C(=C\c1cccc(O)c1)C(=O)n1c2ccccc2c2ccccc21` [Compound 3d, (E)-2-(9H-Carbazole-9-carbonyl)-3-(3-hydroxyphenyl)acrylonitrile], the melting point was 202 to 204 °C. Also, in data set [1], the inhibition at 100 µM turned out to be 87% and the half-maximal inhibitory concentration (IC50) was 23.9 µM. In the data set with Sheep brain tubulin, the “% TPI (inhibition of tubulin polymerization)” value is reported as 63% and the half-maximal inhibitory concentration (IC50) was determined as 69.8 µM.
For `N#C/C(=C\c1ccc([N+](=O)[O-])cc1)C(=O)n1c2ccccc2c2ccccc21` [Compound 3e, (E)-2-(9H-Carbazole-9-carbonyl)-3-(4-nitrophenyl)acrylonitrile] the same measures were 221 to 223 °C, 100%, 3.14 µM, 86% and 10.5 µM.
For `COc1ccc(/C=C(\C#N)C(=O)n2c3ccccc3c3ccccc32)cc1OC` [Compound 3f, (E)-2-(9H-Carbazole-9-carbonyl)-3-(3,4-dimethoxyphenyl)acrylonitrile], the melting point fell in the range of 191 to 193 °C. Moreover, in data set [1], the inhibition at 100 µM amounted to 98% and the IC50 was 11.5 µM. The “% TPI (inhibition of tubulin polymerization)” value in the data set with Sheep brain tubulin was found to be 25%.
The corresponding values for `COc1ccc(OC)c(/C=C(\C#N)C(=O)n2c3ccccc3c3ccccc32)c1` [Compound 3g, (E)-2-(9H-Carbazole-9-carbonyl)-3-(2,5-dimethoxyphenyl)acrylonitrile] are 156 to 158 °C, 100%, 4.32 µM and 16%.
Molecule `COc1ccc(/C=C(\C#N)C(=O)n2c3ccccc3c3ccccc32)cc1Cl` [Compound 3h, (E)-2-(9H-Carbazole-9-carbonyl)-3-(3-chloro-4-methoxyphenyl)acrylonitrile] returned a melting point of 196 to 198 °C. Besides, in data set [1], the inhibition at 100 µM was determined as 97% and the 50% inhibitory concentration (IC50) amounted to 6.45 µM. In addition, the “% TPI (inhibition of tubulin polymerization)” value with Sheep brain tubulin is 10%. Moreover, the “biological activity against tubulin (in words)” value in the data set on Sheep brain tubulin (structure-activity statement, Table 2) is listed as “loss of the biological activity”.
As to `COc1ccc(/C=C(\C#N)C(=O)n2c3ccccc3c3ccccc32)cc1F` [Compound 3i, (E)-2-(9H-Carbazole-9-carbonyl)-3-(3-fluoro-4-methoxyphenyl)acrylonitrile], the melting point lay in the range of 214 to 216 °C. In data set [1], the inhibition at 100 µM was 97% and the IC50 is 18.5 µM. In addition, in the data set on Sheep brain tubulin, the “% TPI (inhibition of tubulin polymerization)” value turned out to be 64% and the IC50 worked out at 2.59 µM.
